“Also recorded” adds a separate entry of the source. Where two headings read alike, the source gives them in different places.
Tests used:
maltase [1] = test system: maltase; set-up: method as in PMID 19772492; settings: kinetic analysis; cited from earlier work
sucrase [2] = test system: sucrase; set-up: method as in PMID 19772492; settings: cited from earlier work
rat maltase [3] = target: rat maltase; set-up: method as in PMID 28914528; settings: cited from earlier work
rat sucrase = target: rat sucrase; set-up: method as in PMID 28914528; settings: cited from earlier work
maltase [4] = test system: maltase; set-up: method as in PMID 32218677; settings: maltose substrate, cited from earlier work
maltase [5] = target: T1, maltase (Saccharomyces cerevisiae, UniProt P53341); test: Maltase inhibitory activity assay (maltose substrate, glucose oxidase method); type: biochemical; settings: for inhibition at 10 µM: read-out: maltase inhibition
T1 construct: purchased Sigma Chemical Co. (St. Louis, MO, USA)
T1 sequence (P53341 whole entry): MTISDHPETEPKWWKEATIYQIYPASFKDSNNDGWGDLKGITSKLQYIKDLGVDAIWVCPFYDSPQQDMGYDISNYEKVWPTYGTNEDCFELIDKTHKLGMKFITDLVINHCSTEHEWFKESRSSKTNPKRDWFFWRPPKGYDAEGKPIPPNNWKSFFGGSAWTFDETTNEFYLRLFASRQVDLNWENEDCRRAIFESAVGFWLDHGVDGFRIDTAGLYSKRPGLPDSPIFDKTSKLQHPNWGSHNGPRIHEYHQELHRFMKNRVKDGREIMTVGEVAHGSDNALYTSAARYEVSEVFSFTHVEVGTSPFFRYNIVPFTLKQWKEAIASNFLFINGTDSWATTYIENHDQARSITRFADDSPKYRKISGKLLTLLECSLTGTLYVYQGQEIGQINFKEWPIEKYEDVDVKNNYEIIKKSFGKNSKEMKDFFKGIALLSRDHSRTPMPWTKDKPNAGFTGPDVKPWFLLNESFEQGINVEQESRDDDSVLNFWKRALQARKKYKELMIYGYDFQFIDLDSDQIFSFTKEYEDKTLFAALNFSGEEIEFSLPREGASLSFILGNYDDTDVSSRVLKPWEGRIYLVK
Description: (§1) Maltase activity was characterized using the methods outlined by Adisakwattana et al. with slight modifications. Maltose and maltase derived from Saccharomyces cerevisiae (S. cerevisiae) were obtained from Sigma Chemical Co. (St. Louis, MO, USA). A reaction mixture was formulated from 30 μL of maltose (86.3 mM) with 20 μL of maltase (0.33 units/mL) and 50 μL of phosphate buffer (100 mM, pH 7.0). The mixture was incubated at 37 °C for 10 min and then at 100 °C for a further 10 min to stop the reaction. The glucose concentrations released by the reaction mixture were determined via the glucose oxidase method (glucose assay kit, Sigma Chemical Co., St. Louis, MO, USA) using a VersaMax microplate reader (Molecular Devices Corporation, Sunnyvale, CA, USA) at an absorbance wavelength of 540 nm.
All of the samples were assessed in terms of maltase inhibitory activity under a range of concentrations (0–30 μM). Maltase inhibitory activity was evaluated by dissolving the samples directly in phosphate buffer solution (100 mM, pH 7.0). Note that each sample was assayed in triplicate. Inhibitory activity was estimated in terms of IC50 values based on percent inhibition, as follows:percent inhibition (%) = [(Awithout sample − Awith sample)] × 100%/Awithout sample(1)

sucrase [6] = test: Sucrase inhibitory activity assay (sucrose substrate, glucose oxidase method); type: biochemical, Leuconostoc mesenteroides; settings: for IC50: L. mesenteroides sucrase, sucrose substrate, pH 7.0, 37 °C, mean ± SD; for sucrase inhibition: at a concentration of 20 µM
Description: Estimates of sucrase activity were obtained using the method outlined by […] et al. with slight modifications. Sucrose and sucrase derived from Leuconostoc mesenteroides were obtained from Sigma Chemical Co. (St. Louis, MO, USA). […] The mixtures were incubated at 37 °C for 60 min and then at 100 °C for a further 10 min to stop the reaction. The glucose concentrations released from the reaction mixtures were estimated via the glucose oxidase method (glucose assay kit, Sigma Chemical Co., St. Louis, MO, USA) using a VersaMax microplate reader (Molecular Devices Corporation, Sunnyvale, CA, USA) at an absorbance wavelength of 540 nm. […] All samples were assessed in terms of sucrase inhibitory activity under a range of concentrations (0-50 μM).

maltase [7] = target: T1, maltase; test: Maltase inhibition kinetics (Lineweaver–Burk and Dixon plots); type: biochemical; settings: for Ki’ maltase (uncompetitive inhibition constant): binding to maltase–maltose complex; for mode of inhibition toward maltase: Lineweaver–Burk / Dixon plots
Description: as §1
Kinetics assays were conducted using substrates of various concentrations with and without inhibitors. Maltose was used as a substrate for maltase, where the initial velocity was expressed as the rate of absorbance at 540 nm per min. Sucrose was used as a substrate for sucrase, where the initial velocity was expressed as the rate of absorbance at 540 nm per 18 min. Dixon plot analysis was used to determine the competitive inhibition constant (Ki) and uncompetitive inhibition constant (Ki’). Ki was used as the equilibrium constant for the inhibition of binding to maltase and sucrase, whereas Ki’ was used as the equilibrium constant for the inhibition of binding to maltase–maltose and sucrase–sucrose complexes. The Ki and Ki’ values of the maltase inhibitors were derived from Dixon plots in accordance with the methods described by Cornish-Bowden.

sucrase [8] = test: Sucrase inhibition kinetics (Lineweaver–Burk and Dixon plots); type: biochemical, Leuconostoc mesenteroides; settings: for Ki / Ki’ sucrase (uncompetitive inhibition constant): Dixon plot; for Ki / mode of inhibition toward sucrase: sucrose substrate; for Ki: binding to sucrase, read-out: Ki sucrase (competitive inhibition constant); for mode of inhibition toward sucrase: Lineweaver–Burk / Dixon plots; for Ki’ sucrase (uncompetitive inhibition constant): binding to sucrase–sucrose complex
Description: Estimates of sucrase activity were obtained using the method outlined by […] et al. with slight modifications. Sucrose and sucrase derived from Leuconostoc mesenteroides were obtained from Sigma Chemical Co. (St. Louis, MO, USA). […] The mixtures were incubated at 37 °C for 60 min and then at 100 °C for a further 10 min to stop the reaction. The glucose concentrations released from the reaction mixtures were estimated via the glucose oxidase method (glucose assay kit, Sigma Chemical Co., St. Louis, MO, USA) using a VersaMax microplate reader (Molecular Devices Corporation, Sunnyvale, CA, USA) at an absorbance wavelength of 540 nm. […] Kinetics assays were conducted using substrates of various concentrations with and without inhibitors. Maltose was used as a substrate for maltase, where the initial velocity was expressed as the rate of absorbance at 540 nm per min. Sucrose was used as a substrate for sucrase, where the initial velocity was expressed as the rate of absorbance at 540 nm per 18 min. Dixon plot analysis was used to determine the competitive inhibition constant (Ki) and uncompetitive inhibition constant (Ki'). Ki was used as the equilibrium constant for the inhibition of binding to maltase and sucrase, whereas Ki' was used as the equilibrium constant for the inhibition of binding to maltase-maltose and sucrase-sucrose complexes.

α-glucosidase = test system: α-glucosidase; set-up: method as in doi:10.1016/j.foodres.2014.01.029; settings: cited from earlier work; for Ki / Ki’ α-glucosidase: previous results
maltase [9] = target: maltase; set-up: method as in PMID 15826043; settings: isolated from Siraitia grosvenori; read-out: IC50 maltase inhibitory activity; cited from earlier work
sucrase [10] = test system: sucrase; set-up: method as in PMID 15895684; settings: sucrose substrate, cited from earlier work
sucrose in rats = test system: sucrose in rats; set-up: method as in PMID 20629879; settings: read-out: IC50 against sucrose in rats; cited from earlier work
rat maltase [11] = target: rat maltase; set-up: method as in doi:10.1016/j.foodchem.2010.03.088; settings: read-out: IC50 against rat maltase; cited from earlier work
rat sucrose = test system: rat sucrose; set-up: method as in doi:10.1016/j.foodchem.2010.03.088; settings: read-out: IC50 against rat sucrose; cited from earlier work
[12] = S. cerevisiae maltase, maltose substrate, pH 7.0, 37 °C, mean ± SD, triplicate, read-out: IC50 Maltase

Compound: COc1cc(/C=C/C(=O)O)ccc1O [ferulic acid]
- mode of inhibition of maltase (maltase [1]): mixed-inhibition manner
- mode of inhibition of sucrase (sucrase [2]): mixed-type manner

Compound: O=C(O[C@@H]1Cc2c(O)cc(O)cc2O[C@@H]1c1cc(O)c(O)c(O)c1)c1cc(O)c(O)c(O)c1 [epigallocatechin gallate]
- IC50 (rat maltase [3]): 14 ± 2 µM
- IC50 (rat sucrase): 950 ± 86 µM
- mode of inhibition of maltase (maltase [4]; Lineweaver–Burk plot): competitive inhibitor
- Ki (maltase [4]; read-out: Ki maltase calculated from a Dixon plot): 5.93 ± 0.26 µM

Compound: O=C(OC1Cc2c(O)cc(O)c(C3c4c(O)cc(O)cc4OC(c4ccc(O)c(O)c4)C3O)c2OC1c1ccc(O)c(O)c1)c1cc(O)c(O)c(O)c1 (stereo not drawn) [B2-3’-O-gallate, epicatechin-(4β,8)-epicatechingallate]
- IC50 (maltase [5]; [12]): 1.73 ± 1.37 µM
- inhibition at 10 µM (maltase [5]): 90.7%
- IC50 (sucrase [6]): 6.91 ± 3.41 µM
- sucrase inhibition (sucrase [6]): 84.6%
- Ki (maltase [7]; Dixon plot, maltose substrate, binding to maltase, read-out: Ki maltase (competitive inhibition constant)): 1.99 ± 0.02 µM
- Ki’ maltase (uncompetitive inhibition constant) (maltase [7]; Dixon plot): 3.73 ± 0.08 µM
- mode of inhibition toward maltase (maltase [7]; maltose substrate): mixed-type inhibition; also recorded: mixed-competitive inhibitors
- Ki (sucrase [8]): 6.05 ± 0.04 µM
- mode of inhibition toward sucrase (sucrase [8]): mixed-type inhibition; also recorded: mixed-competitive inhibitors
- mode of inhibition of α-glucosidase (α-glucosidase): mixed-competitive inhibitors
- Ki (α-glucosidase): 0.3 ± 0.03 µM
- Ki’ α-glucosidase (α-glucosidase): 1.42 ± 0.01 µM

Compound: C[C@H](CC[C@@H](O[C@@H]1O[C@H](CO)[C@@H](O)[C@H](O)[C@H]1O[C@@H]1O[C@H](CO)[C@@H](O)[C@H](O)[C@H]1O)C(C)(C)O)[C@H]1CC[C@@]2(C)[C@H]3CC=C4[C@@H](CC[C@H](O[C@@H]5O[C@H](CO[C@@H]6O[C@H](CO)[C@@H](O)[C@H](O)[C@H]6O)[C@@H](O)[C@H](O)[C@H]5O)C4(C)C)[C@]3(C)[C@H](O)C[C@]12C [mogroside IV]
- IC50 (maltase [9]): 12000 µM

Compound: N[C@H]1C=C(CO)[C@@H](O)[C@H](O)[C@H]1O [valienamine]
- mode of inhibition of sucrase (sucrase [10]; Lineweaver–Burk plot): competitive inhibitor
- Ki (sucrase [10]; read-out: Ki sucrase calculated from a Dixon plot): 0.77 µM

Compound: O=C(O)/C=C/c1ccc(O)c(O)c1 [caffeic acid]
- mode of inhibition of maltase (maltase [1]): mixed-inhibition manner

Compound: O=C(O[C@@H]1Cc2c(O)cc(O)cc2O[C@@H]1c1ccc(O)c(O)c1)c1cc(O)c(O)c(O)c1 [ECG, epicatechin gallate]
- IC50 (maltase [5]): 3.64 ± 2.99 µM
- inhibition at 10 µM (maltase [5]): 87.7%
- IC50 (sucrase [6]): 18.3 ± 3.99 µM
- sucrase inhibition (sucrase [6]): 56.1%
- Ki (maltase [7]): 3.14 ± 0.04 µM
- Ki’ maltase (uncompetitive inhibition constant) (maltase [7]; Dixon plot): 6.38 ± 0.04 µM
- mode of inhibition toward maltase (maltase [7]; maltose substrate): mixed-type inhibition; also recorded: mixed-competitive inhibitors
- Ki (sucrase [8]): 8.58 ± 0.08 µM
- Ki’ sucrase (uncompetitive inhibition constant) (sucrase [8]): 15.74 ± 0.32 µM
- mode of inhibition toward sucrase (sucrase [8]): mixed-type inhibition; also recorded: mixed-competitive inhibitors
- mode of inhibition of α-glucosidase (α-glucosidase): mixed-competitive inhibitors
- Ki (α-glucosidase): 0.21 ± 0.04 µM
- Ki’ α-glucosidase (α-glucosidase): 2.34 ± 0.06 µM

Compound: Oc1cc(COCc2cc(O)c(O)c(Br)c2Br)c(Br)c(Br)c1O [bis (2,3-dibromo-4,5-dihydroxybenzyl)ether]
- IC50 (sucrose in rats): 1000 ± 30 µM

Compound: Oc1cc(O)c2c(c1)O[C@H](c1ccc(O)c(O)c1)[C@H](O)C2 [EC, epicatechin]
- IC50 (maltase [5]; [12]): 6.25 ± 1.84 µM
- inhibition at 10 µM (maltase [5]): 66.3%
- IC50 (sucrase [6]): 18.9 ± 3.66 µM
- sucrase inhibition (sucrase [6]): 51.4%
- Ki’ maltase (uncompetitive inhibition constant) (maltase [7]; Dixon plot): 18.88 ± 0.22 µM
- mode of inhibition toward maltase (maltase [7]; maltose substrate): mixed-type inhibition; also recorded: mixed-competitive inhibitors
- Ki (maltase [7]; read-out: Ki maltase (competitive inhibition constant)): 7.02 ± 0.26 µM
- Ki (sucrase [8]): 13.7 ± 0.15 µM
- Ki’ sucrase (uncompetitive inhibition constant) (sucrase [8]): 21.36 ± 0.30 µM
- mode of inhibition toward sucrase (sucrase [8]): mixed-type inhibition; also recorded: mixed-competitive inhibitors

Compound: C[C@H](CC[C@@H](O[C@@H]1O[C@H](CO[C@@H]2O[C@H](CO)[C@@H](O)[C@H](O)[C@H]2O)[C@@H](O)[C@H](O)[C@H]1O)C(C)(C)O)[C@H]1CC[C@@]2(C)[C@@H]3CC=C4[C@@H](CC[C@H](O[C@@H]5O[C@H](CO)[C@@H](O)[C@H](O)[C@H]5O)C4(C)C)[C@]3(C)[C@H](O)C[C@]12C [mogroside III]
- IC50 (maltase [9]): 1600 µM

Compound: C[C@H](CC[C@@H](O[C@@H]1O[C@H](CO[C@@H]2O[C@H](CO)[C@@H](O)[C@H](O)[C@H]2O)[C@@H](O)[C@H](O)[C@H]1O[C@@H]1O[C@H](CO)[C@@H](O)[C@H](O)[C@H]1O)C(C)(C)O)[C@H]1CC[C@@]2(C)[C@@H]3CC=C4[C@@H](CC[C@H](O[C@@H]5O[C@H](CO)[C@@H](O)[C@H](O)[C@H]5O)C4(C)C)[C@]3(C)[C@H](O)C[C@]12C [siamenoside I]
- IC50 (maltase [9]): 10000 µM

Compound: COc1ccc(/C=C/C(=O)O)cc1O [isoferulic acid]
- mode of inhibition of maltase (maltase [1]): mixed-inhibition manner
- mode of inhibition of sucrase (sucrase [2]): mixed-type manner

Compound: O=c1c(O)c(-c2ccc(O)c(O)c2)oc2cc(O)cc(O)c12 [quercetin, reference compound]
- inhibition at 10 µM (maltase [5]): 56.3%
- IC50 (sucrase [6]): 19 ± 2.53 µM
- sucrase inhibition (sucrase [6]): 51.7%
- Ki’ maltase (uncompetitive inhibition constant) (maltase [7]; Dixon plot): 14.97 ± 0.75 µM
- mode of inhibition toward maltase (maltase [7]; maltose substrate): mixed-type inhibition; also recorded: mixed-competitive inhibitors
- Ki (sucrase [8]): 14.05 ± 0.03 µM
- mode of inhibition toward sucrase (sucrase [8]): mixed-type inhibition; also recorded: mixed-competitive inhibitors
- IC50 (rat maltase [11]): 4800 ± 400 µM
- IC50 (rat sucrose): 3500 ± 300 µM
- mode of inhibition of α-glucosidase (α-glucosidase): mixed-competitive inhibitors

Source: article PMC6915683, “Characterization of Maltase and Sucrase Inhibitory Constituents from Rhodiola crenulata” (Foods, 2019)
